From patent US20170105967A1, “COMPOSITIONS AND METHODS OF TREATMENT OF INFLAMMATORY SKIN CONDITIONS USING ALLANTOIN” (Scioderm, Inc., priority 2010, published 2017)

Columns and labels:
psoriatic scales = conditions: in vitro incubation with allantoin solution; cited from earlier work
[1] = percutaneous absorption through dermis only human cadaver skin; type: in vitro ADME; conditions: isolated dermis
Protocol: The formulations A.S. 1-139E, A.S. 1-81B, A.S. 1-135C, A.S. 1-135G, and A.S. 1-81 G were tested on a minimum of triplicate sections from three different cadaver skin donors and three different porcine skin donors for the percutaneous absorption of allantoin over a 48-hour dose period. The intent of this study was to mimic the absorption of allantoin directly into the capillary bed, while the dermis only study attempted to mimic the loss of skin barrier function due to broken skin or blisters. In addition, each formulation was tested in at least triplicate membrane chambers. At preselected times after dosing, the dermal receptor solution was removed in its entirety, replaced with fresh receptor solution, and an aliquot saved for subsequent analysis. The samples were analyzed for the allantoin using high performance liquid chromatography with UV and MS detection (HPLC-UV-MS). The bottom table of FIG. 3 lists a remanufacture of the 9% allantoin cream (A.S. 1-153H) to achieve a better viscosity of the final product.

[2] = in vitro; reactive sulphydryl groups released; cited from earlier work
[3] = sodium lauryl sulfate and beeswax emulsion, pH 6.8 to 7.5; with time and accelerated tests at 40° C.; cited from earlier work
[4] = test system: calluses and other forms of hyperkeratization; conditions: lower concentrations; cited from earlier work

In the case of NC(=O)NC1NC(=O)NC1=O (centres unmarked) [allantoin], the “concentration showing keratolytic activity on psoriatic scales” value (psoriatic scales) is given as no less than 0.2%, the “penetration of allantoin when the skin's barrier has been damaged or removed” value [1] is given as “increases significantly” and the protein dispersing activity [2] is given as “confirm the protein dispersing activity”. The stability of allantoin [3] was “degrades significantly” and the “concentration loosening the desmosomes (protein bridges)” value [4] was less than 1%.
